Laboratory results reported in patent publication US20210052701A1, “Methods of Treating Vascular Leakage Using CXCL12 Peptides” (The Medical College of Wisconsin, Inc., priority 2018, published 2021).
“Also recorded” adds a separate entry of the source.

How the values were obtained:
HULEC-5a = assay: Effects of CXCL12 and ubiquitin on thrombin-induced impairment of HULEC-5a monolayer permeability; assay type: cell-based, human; details: thrombin 50 nM, after 10 min 50 nM ligand
Protocol: FIGS. 4A-4D show effects of CXCL12 and ubiquitin on thrombin-induced impairment of HULEC-5a monolayer permeability. (A) HULEC-5a were grown to a confluent monolayer on collagen-coated permeable membranes and then exposed to different concentration of thrombin for 10 min, followed by the addition of FITC-dextran. Endothelial permeability was assessed by measuring the amount of FITC-dextran that permeated through the cell monolayer. No cells: 100% permeability. RFU: Relative fluorescence units. N=3 in quadruplicate. (B) Dose-response curves for thrombin-induced permeability, data from A. 100% permeability=permeability in the absence of HULEC-5a. Open squares: Permeability at t=55 min. Light grey squares: Permeability at t=135 min. Dark grey squares: Permeability at t=255 min. […] Endothelial permeability was assessed by measuring the amount of FITC-dextran that permeated through the cell monolayer. RFU: Relative fluorescence units. […]
In vitro vascular permeability assays—Permeability assays were obtained from Millipore (ECM642) and performed as per manufacturer's instructions. […] Fluorescein isothiocyanate (FITC)-dextran (20 μg/mL) was then added on top of the monolayer and the amount of FITC-dextran that permeated through the monolayer was quantified by measuring fluorescence in a Synergy 2 Multi-mode Microplate Reader (BioTek, Winooski, Vt.) at various time points over a 255 min time period.

[1] = system: animal model of acute respiratory distress syndrome (ARDS); assay: Animal model of ARDS: lung ischemia reperfusion injury plus hemorrhage (P:F ratio, lung injury score); assay type: in vivo, Sprague-Dawley rats
Protocol: Animals underwent 70 min of […] lung ischemia for 70 min plus hemorrhage to a MAP of 40 mmHg for the last 30 min of ischemia, followed by fluid resuscitation to a MAP of 60 mmHg until t=300 min. Arrow: drug injection. Dashed lines indicate the P:F ratio (mmHg) threshold values for the diagnosis of mild, moderate and severe ARDS. Vehicle: n=5. CXCL12: n=3. CXCL12: n=4. CXCL12-LM: n=3, CXCL12-LD: n=4. CXCL12 K27A/R41A/R47A: n=3. LI+HEM: lung ischemia reperfusion injury plus hemorrhage. Data are mean±SEM. *: p<0.05 vs. vehicle (2-way ANOVA/Dunnett's multiple comparisons test).
FIGS. 12A-12C show lung histology after treatment with CXCL12 and engineered CXCR4 agonists A. Lung specimens were placed in formalin fixative solution and were then embedded in paraffin wax, sliced into 5 μm sections and stained with H&E. Representative images from H&E stained lung sections from animals after vehicle (left) and CXCL12 ([…], right treatment. B/C. Lung injury scores (B. uninjured (left) lung; C. injured (right) lung). Data are median±interquartile ranges. Data were analyzed with the Kruskal Wallis test with Dunn's multiple comparisons test. The level of statistical significance (p) vs. ctrl. (vehicle treatment) indicated.
We tested therapeutic efficacy of wild-type CXCL12, CXXL12-locked dimer (LD), CXCL12-locked monomer (LM) and the triple mutant CXCL12 K27A/R41A/R47A in an animal model of acute respiratory distress syndrome (ARDS) (FIG. 11). All drugs were injected in a dose of 0.14 μmol/kg. Male Sprague-Dawley rats were anesthetized, orotracheally intubated, instrumented with arterial/venous catheters, and mechanically ventilated (PEEP 2 mmHg, FiO2 1.0). After a right lateral thoracotomy, a suture was tied around the hilum of the right lung. Animals underwent 70 min of right lung ischemia plus hemorrhage to a mean arterial blood pressure (MAP) of 40 mmHg for the last 30 min of lung ischemia. At t=70 min, the suture was removed, animals were ventilated with FiO2 1.0, PEEP 5 mmHg and resuscitated with crystalloids to a MAP of 60 mmHg until t=300 min. Vehicle and drugs were injected i.v. within 10 min after reperfusion.
We further evaluated histomorphology of the lungs from animals treated with vehicle, wild-type CXCL12, CXCL12-LD and CXCXL12-LM utilizing a standardized lung injury score. Lung slides stained with hematoxylin and eosin were examined under a light microscope by 4 investigators blinded to the identity of the specimens. The lung injury score was assessed as previously described/. In brief each investigator rendered a score of 0 (no damage) to 4+(maximal damage) based on an injury grading scale composed of six criteria. The slides were assessed for the extent of alveolar congestion, hemorrhage and edema, as well as alveolar and vessel wall PMN infiltration and alveolar wall thickness. […] Lung injury scores of the uninjured and injured lungs from animals treated with vehicle, wild-type CXCL12, CXCL12-LD and CXCXL12-LM are shown in FIGS. […], respectively.

CXCL12 = CXCL12 (Homo sapiens, UniProt P48061); details: read-out: dimerization Kd; cited from earlier work
Chain of CXCL12 (P48061 22-89 limits assumed): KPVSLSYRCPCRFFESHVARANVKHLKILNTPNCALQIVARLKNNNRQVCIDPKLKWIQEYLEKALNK

CXCR4 = molecular target: T1, CXCR4 (Homo sapiens, UniProt P61073); assay: Presto-Tango β-arrestin 2 recruitment assay for CXCR4; assay type: cell-based
T1 construct: host or cells: HTLA cells (HEK293 line stably expressing a tTA-dependent luciferase reporter and a β-arrestin2-TEV fusion gene)
T1 sequence (P61073 whole entry, the tested form may be a part): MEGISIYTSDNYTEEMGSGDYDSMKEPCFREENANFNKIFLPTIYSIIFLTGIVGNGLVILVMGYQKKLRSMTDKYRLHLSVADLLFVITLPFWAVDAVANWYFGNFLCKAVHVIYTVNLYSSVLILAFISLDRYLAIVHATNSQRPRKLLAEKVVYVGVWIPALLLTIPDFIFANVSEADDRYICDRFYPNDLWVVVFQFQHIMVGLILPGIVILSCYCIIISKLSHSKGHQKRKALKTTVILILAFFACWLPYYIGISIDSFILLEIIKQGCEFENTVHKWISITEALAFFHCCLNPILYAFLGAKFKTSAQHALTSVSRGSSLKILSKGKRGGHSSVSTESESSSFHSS
Protocol: FIGS. 6A-6F show Presto-Tango β-arrestin 2 recruitment assays for CXCR4 (A-C) and ACKR3 (D-F). RLU %: % of the luminescence signal for 1 μM CXCL12α. N=9 for CXCL12a and n=3 for all other proteins.
Presto-Tango β-arrestin 2 recruitment assay—The PRESTO-Tango (parallel receptorome expression and screening via transcriptional out-put, with transcriptional activation following arrestin translocation) assay was performed as recently described. The Tango plasmids were a gift from Dr. Bryan Roth (all from Addgene). HTLA cells (2.5×10^5/well) were seeded in a 6-well plate and transfected with 1.5 μg of the Tango plasmids using Lipofectamine 3000 (ThermoScientific). The following day, transfected HTLA cells (1×10^5 cells/well) were plated onto Poly-L-Lysine pre-coated 96-well micro-plates and allowed to attach to the plate surface for at least 4 hours prior to treatment. Proteins used for treatment were prepared in twice the final concentration in culture media, added at a 1:1 vol/vol ratio and incubated overnight at 37° C., 5% CO2 in a humidified environment. The following morning, media was removed from cell culture plates and replaced with a 100 μL 1:5 mixture of Bright-Glo (Promega) and 1×HBSS, 20 mM HEPES solution. Plates were then incubated at room temperature before measuring luminescence on a Biotek Synergy II plate reader.

potency (EC50) to recruit β-arrestin 2 to CXCR4, compared with CXCL12α (CXCR4): no statistically significant differences
Substance: CXCL12: Wild-type CXCL12 (SEQ ID NO:1), cognate agonist of CXCR4 and ACKR3
effect on thrombin-mediated impairment of HULEC-5a barrier function when added after thrombin (HULEC-5a): significantly reduced thrombin-mediated impairment of endothelial cell barrier function; also recorded: less efficacious in HULEC-5a cells than in hPPAEC
development of ARDS (P:F ratio) ([1]; 0.14 μmol/kg i.v. within 10 min after reperfusion, until t=300 min): development of ARDS was delayed and attenuated
time at which criteria for mild ARDS were fulfilled ([1]; 0.14 μmol/kg i.v., P:F ratio<300 mmHg): 300 min
P:F ratios compared with vehicle treated animals ([1]; 0.14 μmol/kg i.v., t=90-240 min): significantly higher
histological signs of lung injury, injured lung (lung injury score) ([1]; H&E sections, vs. vehicle): significantly reduced
Kd (CXCL12): 140 µM
